As a reminder, the microsomal CLint is a measure of how fast metabolising enzymes remove a compound, apart from limits set by blood flow. In general, half-life refers to the time in which the quantity being followed falls by half. As a reminder, the clearance is a measure of how efficiently the substance is removed, as volume per time. The term bioavailability denotes the share of a dose that reaches the circulation, judged against a reference dose that is usually intravenous.

Where only a bound is given, the exact number is not on record here.

The values below come from ChEMBL document CHEMBL1157538, “Discovery of a potent, selective, and orally bioavailable c-Met inhibitor: 1-(2-hydroxy-2-methylpropyl)-N-(5-(7-methoxyquinolin-4-yloxy)pyridin-2-yl)-5-methyl-3-oxo-2-phenyl-2,3-dihydro-1H-pyrazole-4-carboxamide (AMG 458)” (J Med Chem, 2008).

The nature of data set [1]: Intrinsic clearance in human liver microsome. The data set is classed as ADME. As to conditions: liver microsomes.
Data set [2] concerns Mus musculus. Nature of the data set: Inhibition of HGF-mediated c-Met phosphorylation in BALB/c mouse liver at 30 mg/kg, po after 6 hrs. It is filed as functional. More on the design: scale not given: the % may be the effect or the level left.
Data set [3] can be described thus: Intrinsic clearance in Sprague-Dawley rat liver microsome. The settings on record: liver microsomes. It is filed as ADME. On the technique in general: Microsomes from liver hold many membrane-bound enzymes, among them those of drug oxidation.
The nature of data set [4]: Half life in rat. The settings on record: in vivo. The data set is classed as ADME, organism-based.
The nature of data set [5]: Clearance in rat. As to conditions: in vivo. The data set is classed as ADME, organism-based.
Data set [6] in a line: Oral bioavailability in rat. It is filed as ADME, organism-based. The settings on record: in vivo.
The nature of data set [7]: Intrinsic clearance in BALB/c mouse liver microsome. The data set is classed as ADME. As to conditions: liver microsomes.

As to `COc1ccc2c(Oc3ccc(NC(=O)c4c(C)n(C[C@@H](C)O)n(-c5ccccc5)c4=O)cc3F)ccnc2c1`, the figures for the intrinsic metabolic clearance (microsomal CLint) in data set [1], in data set [3] and in data set [7] were less than 55 µL/min/mg, less than 60 µL/min/mg and less than 45 µL/min/mg, respectively. This compound had an Activity in data set [2] of 98%. Moreover, the half-life in data set [4] is 1.9 h. Also, the clearance in data set [5] was less than 3.33 mL/min/kg. The same compound returned a bioavailability in data set [6] greater than 50%.
